A short description of series [1]: Preparation of solid freeze-dried HPCD complexes: degree of incorporation. Format: physicochemical. The following applies: freeze-dried complex from 50% w/w HPCD (ASDS 5.1). On the procedure: An excess of E2-CDS was added and the solution then was purged with helium. The resulting suspension was then sonicated for 30 minutes, filtered through a glass filter (ASTM 10-15M, Pyrex No. 36060) and freeze-dried overnight. Best results were obtained by hard-freezing the aqueous solution of the E2-CDS/HPCD complex for at least 10 hours before lyophilization. The degree of complex formation was determined by dissolving a small amount of the dry complex in methanol and then analyzing by high pressure liquid chromatography (HPLC).
An excess of E2-CDS or other CDS was added to a 50% w/w solution of HPCD. The suspension was sonicated for 30 minutes, filtered through 0.45 µm PVDF membranes and freeze-dried. The degree of incorporation was determined either spectrophotometrically or by HPLC. In some cases, the effect of solubilizing agents on the degree of incorporation was examined. This involved adding small amounts of polyoxyethylene 20 cetyl ether (Brij), polyoxyethylene sorbitan monooleate (Tween 80) or ethanol to the aqueous solution prior to lyophilization.
The retention time was 5.2 min. Other compounds were assayed spectrophotometrically.
The solution was degassed and the suspension was sonicated for 30 minutes, after which it was filtered and the filtrate was lyophilized. The dried filtrate contained 65.6 mg testosterone propionate or 29.6 mg T-CDS1 per gram of cyclodextrin complex. Compounds were analyzed for decomposition by thin-layer chromatography and ultraviolet absorption.

Series [2] can be described thus: Maximum concentrations of selected CDS in varying concentrations of selected cyclodextrins. The class given is physicochemical. The protocol:
In further testing, maximum concentrations of selected CDS in varying concentrations of selected cyclodextrins were determined. The concentration of E2-CDS (mg/mL) was as follows: […]

Series [3] in a line: Phase-solubility experiments in aqueous HPCD at 25±1°C. The protocol:
For comparison, the solubilities of the drugs in water were also determined.
• Wavelength: 245 nm • Column: Waters µBondapak CN, 3.9 mm (id.) x 30 cm • Mobile phase: acetonitrile, acetic acid, water (60:1:39) containing 0.1% 1-hexasulfonic acid, sodium salt • Flow rate: 2.00 mL/min.
• Wavelength: 263 nm • Column: ASI C18, 10 µm, 3.9 mm (i.d.) x 30 cm • Mobile phase: acetonitrile, water (55:45) • Flow rate: 1.00 mL/min.
• Wavelength: 241 nm • Column: Waters µBondapak CN, 3.9 mm (i.d.) x 30 cm • Mobile phase: acetonitrile, water (6:4) • Flow rate: 2.00 mL/min.
• Wavelength: 280 nm • Column: ASI C18, 10 µm, 3.9 mm (i.d.) x 30 cm • Mobile phase: acetonitrile, water (55:45) • Flow rate: 2.00 mL/min.
• Wavelength: 248 nm • Column: Fisher Resolvex C18, 4.6 mm (i.d.) x 25 cm • Mobile phase: acetonitrile, water (6:4) • Flow rate: 1.50 mL/min.
• Wavelength: 248 nm • Column: Fisher Resolvex C18, 4.6 mm (i.d.) x 25 cm • Mobile phase: acetonitrile, water (7:3) • Flow rate: 2.00 mL/min.
• Wavelength: 253 nm • Column: Waters µBondapak CN, 3.9 mm (i.d.) x 30 cm • Mobile phase: acetonitrile, […], water (60:1:39) containing 0.1% 1-hexanesulfonic acid, sodium salt • Flow rate: 2.00 mL/min.
• Wavelength 308 nm • Column: Fisher Resolvex C18, 4.6 mm (i.d.) x 25 cm • Mobile phase: methanol, acetic acid, water (50:1:49) containing 0.1% 1-octanesulfonic acid, sodium salt • Flow rate: 2.00 mL/min.
• Wavelength: 240 nm • Column: Fisher Resolvex C18, 4.6 mm (i.d.) x 25 cm • Mobile phase: acetonitrile, water (6:4) • Flow rate: 1.50 mL/min.
• Wavelength: 240 nm • Column: Fisher Resolvex C18, 4.6 mm (i.d.) x 25 cm Mobile phase: acetonitrile, water (7:3) • Flow rate: 2.00 mL/min.
• Wavelength: 241 nm • Column: Fisher Resolvex C18, 4.6 mm (i.d.) x 25 cm • Mobile phase: acetonitrile, water (7:3) • Flow rate: 2.00 mL/min.
• Wavelength: 230 nm • Column: Waters µBondapak CN, 3.9 mm (i.d.) x 30 cm • Mobile phase: acetonitrile, water (35:65) • Flow rate: 2.00 mL/min.
• Wavelength: 258 nm • Column: Fisher Resolvex C18, 4.6 mm (i.d.) x 25 cm • Mobile phase: acetonitrile, water (55:45) • Flow rate: 2.00 mL/min.
• Wavelength: 325 nm • Column: Waters µBondapak C18, 10 µm, 3.9 mm (i.d.) x 30 cm • Mobile phase: acetonitrile, water (55:45) • Flow rate: 1.00 mL/min.

Series [4] in a line: physchem.
Experimental: After equilibration in a 30.0±0.2°C water bath in the dark for up to 72 hours, aliquots of the mixtures were filtered through 0.45 Mm membrane filters, diluted and the drug concentration determined by HPLC or UV methods.
The nature of series [5]: Solubilizing effect of a 50% w/w solution of HPCD on steroids and CDS. Particulars: 50% w/w aqueous hpcd. On the procedure:
An excess of E2-CDS was sonicated with an aqueous solution of the appropriate solubilizing agent for 30 minutes. The suspension was then centrifuged, filtered through 0.45 µm polyvinylidene difluoride (Millex-HV4, Millipore®) membranes and analyzed by HPLC. […] An estimation of the bulk equilibrium constant was obtained by correlating the millimolarity of E2-CDS solubilized and the millimolarity of the cyclodextrin added. This latter value was calculated using the average molecular weight of the isomeric mixture determined by mass spectroscopy. The solubilizing effect of a 50% w/w solution of HPCD was also examined for a series of steroids and dihydropyridines (CDS). These studies were carried out in a similar manner to those previously described.
For the CDS, the wavelength monitored was 360 nm while for estrogen 220 nm was used.
Separation was achieved on an Analytical Sciences, Inc. (ASI) 10 µm particle size, C18 reversed phase 30 cm x 3.9 mm i.d. analytical column. The flow rate was 1 mL/min, the compounds were detected at 360 nm and in all determinations the temperature was ambient. […] For the GABA-CDS1, a mobile phase consisting of 50:1:1:48 of the same components was required. […] Other compounds were assayed spectrophotometrically.

Converted amounts (≈) assume the structure as drawn.

For the compound “1-methyl-3-N-[3-(benzyloxycarbonyl)propyl]-carbamoyl-1,4-dihydropyridine [GABA-CDS1]”, the “Amount of Drug in Dry Complex” value in series [1] was 160 mg/g.
On to “1-methyl-3-{[2-(9-guanylmethoxy)ethoxy]carbonyl}-1,4-dihydropyridine [ACV-CDS]”, for which the “Amount of Drug in Dry Complex” value in series [1] is on record as 25 mg/g.
Take “17β-{[(1-methyl-1,4-dihydropyridin-3-yl)carbonyl]oxy}-19-norpregn-4-en-20-yn-3-one [norethindrone-CDS]”: in series [1], the “Amount of Drug in Dry Complex” value is recorded as 0.6 mg/g. The “concentration of the norethindrone-CDS” value in series [2] (40% hpcd) came out at 7.13 mg/g; in series [2] (40% hpgcd), 15.9 mg/g.
Regarding `C#C[C@]1(O)CC[C@H]2[C@@H]3CCc4cc(O)ccc4[C@H]3CC[C@@]21C` [17 α-Ethynylestradiol], the values for the solubility in series [3] (25% w/v hpcd), in series [3] (50% w/w hpcd) and in series [3] (water) were 34500 µg/mL (≈ 116 mM), 68200 µg/mL (≈ 230 mM) and 8 µg/mL (≈ 0.027 mM), respectively.
In the case of `CC1=C(/C=C/C(C)=C/C=C/C(C)=C/CO)C(C)(C)CCC1` [All-trans-Retinol], in series [3], the “Increase in Solubility (HPCD/water)” value is reported as “∼4,600”. The solubility in series [3] (50% w/w hpcd) stood at 4600 µg/mL (≈ 16.1 mM); in series [3] (water), 1 µg/mL (≈ 0.00349 mM).
`O=C(O)CCCc1ccc(N(CCCl)CCCl)cc1` [Chlorambucil]: the solubility at 3 h is 740 µg/mL (≈ 2.43 mM) in series [4] (1% aqueous hpcd); 1480 µg/mL (≈ 4.86 mM) in series [4] (2% aqueous hpcd); 2370 µg/mL (≈ 7.79 mM) in series [4] (3% aqueous hpcd); 3220 µg/mL (≈ 10.6 mM) in series [4] (4% aqueous hpcd); 1460 µg/mL (≈ 4.8 mM) in series [4] (5% aqueous hpcd); 4960 µg/mL (≈ 16.3 mM) in series [4] (10% aqueous hpcd). Moreover, the solubility at 3 h in series [4] (15% aqueous hpcd) amounted to 6360 µg/mL (≈ 20.9 mM); in series [4] (20% aqueous hpcd), 8490 µg/mL (≈ 27.9 mM); in series [4] (25% aqueous hpcd), 8850 µg/mL (≈ 29.1 mM); in series [4] (aqueous 7% hpcd) it was 2710 µg/mL (≈ 8.91 mM); in series [4] (water (0% hpcd)), 10 µg/mL (≈ 0.0329 mM). Moreover, the solubility at 84 h in series [4] (1% aqueous hpcd) amounted to 550 µg/mL (≈ 1.81 mM); in series [4] (2% aqueous hpcd), 840 µg/mL (≈ 2.76 mM); in series [4] (3% aqueous hpcd) it was 680 µg/mL (≈ 2.24 mM); in series [4] (4% aqueous hpcd), 1500 µg/mL (≈ 4.93 mM); in series [4] (5% aqueous hpcd) it was 1800 µg/mL (≈ 5.92 mM); in series [4] (7% aqueous hpcd), 3760 µg/mL (≈ 12.4 mM). For the same compound, the solubility at 84 h in series [4] (10% aqueous hpcd) worked out at 5200 µg/mL (≈ 17.1 mM); in series [4] (15% aqueous hpcd) it was 7600 µg/mL (≈ 25 mM); in series [4] (20% aqueous hpcd), 13100 µg/mL (≈ 43 mM); in series [4] (25% aqueous hpcd), 18400 µg/mL (≈ 60.5 mM); in series [4] (water (0% hpcd)), 410 µg/mL (≈ 1.35 mM). The solubility in series [4] (20% aqueous hpcd) worked out at 13100 µg/mL (≈ 43 mM); in series [4] (25% aqueous hpcd) it was 18400 µg/mL (≈ 60.5 mM); in series [4] (water), 410 µg/mL (≈ 1.35 mM). In addition, the solubility at 4 h in series [4] (50% aqueous hpcd) was approximately 30000 µg/mL (≈ 98.6 mM).
For `C[C@@H]1C[C@H]2[C@@H]3CCC4=CC(=O)C=C[C@]4(C)[C@@]3(F)[C@@H](O)C[C@]2(C)[C@@]1(O)C(=O)CO` [Dexamethasone], the solubility in series [3] (25% w/v hpcd) is 24200 µg/mL (≈ 61.6 mM); in series [3] (50% w/w hpcd), 44300 µg/mL (≈ 113 mM); in series [3] (water), 8 µg/mL (≈ 0.0204 mM).
`COc1ccc2c(c1)CC[C@@H]1[C@@H]2CC[C@]2(C)[C@@H](O)CC[C@@H]12` [Estradiol 3-Methyl Ether] yielded a solubility in series [5] of 30000 µg/mL (≈ 105 mM).
Still for that read-out and setting: then `C[C@]12CC[C@@H]3c4ccc(O)cc4CC[C@H]3[C@@H]1C[C@@H](O)[C@@H]2O` [Estriol], with 40000 µg/mL (≈ 139 mM).

As a reminder, the solubility is the dissolved amount per volume that the medium holds. Read a low solubility as little dissolved substance.

The values are drawn from patent EP0335545B2, “Pharmaceutical formulations for parenteral use” (UNIVERSITY OF FLORIDA, priority 1988, dated 1989).
